Laboratory results taken from US3993650A, “Pyrrolo [3,4-d] pyrimidines” (Gruppo Lepetit S.p.A., priority 1975, dated 1976).

Test system: carragenin induced edema
Experiment: carragenin induced edema test in rats (antiinflammatory activity)
Type: in vivo
Details: per os; for decrease of the induced edema: 100 mg/kg; for decrease of the induced edema over the controls: dose levels ranging from about 20 to about 50 mg/kg
Protocol: The compounds of the invention display excellent pharmacological properties; more particularly they are active essentially as antiinflammatories and as prostaglandin synthetase inhibitors. The antiinflammatory activity was investigated through the "carragenin induced edema" test in rats, which was performed following substantially the operative schema proposed by C.A. Winter et al. in Proc. Soc. Expl. Biol. Med., 111, 544, 1962.
It must be noted that a percent decrease of the edema of 30 is absolutely significative from the pharmacological standpoint. Moreover when administered per os at 100 mg/kg the compounds of examples 3 and 7 caused a decrease of the induced edema of about 55%. These very favorable antiinflammatory properties are coupled with a low toxicity, being the LD50 of the compounds of the invention always higher than 500 mg/kg p.o. in mice. Toxicities were determined substantially according to the method described by Lichtfield and Wilcoxon in Journ. Pharm. Expt. Ther., 96, 99 1949.

SMILES | decrease of the induced edema | decrease of the induced edema over the controls
CCn1c(-c2ccccc2)c2c(C)nc(-c3ccccc3)c-2[nH]c1=O.Cl [Example 3, 3-Ethyl-5-methyl-4,7-diphenyl-1H-pyrrolo[3,4-d]pyrimidine-2(3H)-one hydrochloride] | about 55% | at least 30%
CCn1c(-c2ccccc2)c2[nH]c(=O)nc(-c3ccccc3)c2c1C [Example 6, 6-Ethyl-5-methyl-4,7-diphenyl-6H-pyrrolo[3,4-d]pyrimidine-2(1H)-one] | – | at least 30%
CCn1c(C)c2c(-c3ccccc3)nc(=O)n(CC)c2c1-c1ccccc1 [Example 7, 1,6-Diethyl-5-methyl-4,7-diphenyl-6H-pyrrolo[3,4-d]pyrimidine-2(1H)-one] | about 55% | at least 30%
